This is an account of results in PubChem BioAssay (NCI).

Test systems include OVCAR-8 ovarian; M14 melanoma; SF-268 CNS; HS 578T breast; PC-3 prostate; NCI-H460 lung; CAKI-1 renal; SF-295 CNS; KM12 colon; OVCAR-3 ovarian.
What all share (assay): DTP human tumour cell line panel, 48 h

Structures are written as SMILES. Values joined by “and” are separate entries in the source; they are usually repeats but may differ in a detail not shown here. Identical values can stand only once.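 96-well plates; 48 h exposure; 5 concentrations. Endpoints by linear interpolation between flanking doses. Not reached: highest tested concentration assigned. At the GI50, growth is halved. TGI: total growth inhibition.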

For orientation: GI50 means the concentration that inhibits growth by half. For orientation: TGI means the concentration at which net growth stops. Read a high TGI as less potent growth arrest. As for `CNCCOC(=O)/C=C1\CC[C@H]2[C@@H]([C@@H](O)C(=O)[C@@H]3[C@]2(C)CC[C@H](O)[C@]3(C)C(=O)OC)[C@H]1C`, the GI50 in the assay with OVCAR-8 ovarian was 0.329 µM; in the assay on M14 melanoma, 1.08 µM; with SF-268 CNS it was 0.233 µM; with HS 578T breast, 0.281 µM; with PC-3 prostate, 0.369 µM; in the assay with NCI-H460 lung it was 0.201 µM. For the same molecule, the GI50 in the assay on CAKI-1 renal is 0.315 µM; in the assay on SF-295 CNS, 0.301 µM; in the assay with KM12 colon, 0.564 µM; in the assay with OVCAR-3 ovarian, 0.228 µM. Moreover, the TGI in the assay with OVCAR-8 ovarian is 1.11 µM; with M14 melanoma, 2.46 µM; with SF-268 CNS, 0.59 µM; in the assay on HS 578T breast, 2.06 µM; in the assay with PC-3 prostate, 2.34 µM; with NCI-H460 lung, 0.429 µM. Also, the TGI with CAKI-1 renal is 1.08 µM; with SF-295 CNS, 0.951 µM; with KM12 colon, 2.12 µM; in the assay on OVCAR-3 ovarian, 0.49 µM.
On to `N#Cc1nn(-c2cc(=O)[nH]c3ccc(Cl)cc23)c(N)c1C#N`, for which the GI50 in the assay on OVCAR-8 ovarian, with M14 melanoma, in the assay with SF-268 CNS, in the assay with HS 578T breast, with PC-3 prostate and with NCI-H460 lung was over 100 µM throughout. Further, the GI50 with CAKI-1 renal, in the assay with SF-295 CNS, with KM12 colon and with OVCAR-3 ovarian was over 100 µM in each case. Besides, the TGI in the assay with OVCAR-8 ovarian, with M14 melanoma, with SF-268 CNS, with HS 578T breast, in the assay with PC-3 prostate and with NCI-H460 lung was over 100 µM each time. Moreover, the concentration for total growth inhibition (TGI) with CAKI-1 renal, with SF-295 CNS, in the assay on KM12 colon and with OVCAR-3 ovarian was over 100 µM throughout.
Consider `CCC[CH2][Sn]([CH2]CCC)([O]C(=O)c1ccc(OC)c(OC)c1OC)[O][Sn]([CH2]CCC)([CH2]CCC)[O]C(=O)c1ccc(OC)c(OC)c1OC`, for which the 50% growth inhibitory concentration (GI50) in the assay with OVCAR-8 ovarian was 0.299 µM; in the assay with M14 melanoma, 0.267 µM; in the assay with SF-268 CNS, 0.187 µM; in the assay on HS 578T breast, 0.282 µM; in the assay with PC-3 prostate it was 1.2 µM; in the assay on NCI-H460 lung it was 0.895 µM. Moreover, the GI50 is 0.0961 µM with CAKI-1 renal, 0.568 µM in the assay with SF-295 CNS, 0.859 µM in the assay with KM12 colon and 0.406 µM in the assay on OVCAR-3 ovarian. For the same molecule, the TGI in the assay with OVCAR-8 ovarian amounted to 0.979 µM; in the assay with M14 melanoma it was 0.583 µM; in the assay with SF-268 CNS, 0.842 µM; with HS 578T breast it was 1.81 µM; in the assay with PC-3 prostate, 2.46 µM; in the assay with NCI-H460 lung, 2.55 µM. The TGI is 0.506 µM in the assay with CAKI-1 renal, 1.5 µM in the assay with SF-295 CNS, 2.31 µM with KM12 colon and 1.18 µM in the assay with OVCAR-3 ovarian.
`COC(=O)c1ccc2c(c1)C(=O)c1c-2n(CCCN=[N+]=[N-])c(=O)c2cc(OC)c(OC)cc12`: the GI50 in the assay on OVCAR-8 ovarian, with M14 melanoma, with SF-268 CNS, with HS 578T breast, in the assay with PC-3 prostate and with NCI-H460 lung was over 100 µM each time. Besides, the GI50 in the assay with CAKI-1 renal, with SF-295 CNS, in the assay with KM12 colon and with OVCAR-3 ovarian was over 100 µM in each case. Moreover, the TGI with OVCAR-8 ovarian, in the assay on M14 melanoma, in the assay on SF-268 CNS, with HS 578T breast, in the assay on PC-3 prostate and in the assay with NCI-H460 lung was over 100 µM throughout. The total growth inhibition concentration (TGI) in the assay on CAKI-1 renal, in the assay on SF-295 CNS, with KM12 colon and in the assay with OVCAR-3 ovarian was over 100 µM each time.
In the case of `CCOC(=O)Nc1cc2c(c(N)n1)N=C(c1ccccc1)CO2`, the GI50 is 0.418 µM in the assay with OVCAR-8 ovarian; 0.166 µM with M14 melanoma; 0.325 µM with SF-268 CNS; 0.388 µM in the assay with HS 578T breast; 0.182 µM in the assay on PC-3 prostate; 0.0659 µM with NCI-H460 lung. Moreover, the GI50 in the assay with CAKI-1 renal is 0.102 µM; in the assay with SF-295 CNS it was 0.224 µM; in the assay with KM12 colon, 0.0366 µM; with OVCAR-3 ovarian, 0.0345 µM. The TGI with OVCAR-8 ovarian was over 32.9 µM; with M14 melanoma, 93 µM; in the assay with SF-268 CNS, 15.8 µM; in the assay with HS 578T breast, over 69.4 µM; with PC-3 prostate it was 6.44 µM; in the assay on NCI-H460 lung, 5.26 µM. Further, the TGI amounted to 7.62 µM in the assay with CAKI-1 renal, 14.2 µM in the assay on SF-295 CNS, 2.11 µM in the assay on KM12 colon and 0.109 µM with OVCAR-3 ovarian.
Regarding `O=c1c(F)cn(Cc2ccc(C34CC5CC(CC(C5)C3)C4)c(O)c2)c(=O)n1Cc1ccc(C23CC4CC(CC(C4)C2)C3)c(O)c1`, the GI50 with OVCAR-8 ovarian was 14.5 µM; with M14 melanoma it was 18.4 µM; in the assay on SF-268 CNS, 12.8 µM; with HS 578T breast, 11.5 µM; in the assay with PC-3 prostate, 10.7 µM; in the assay on NCI-H460 lung, 9.76 µM. Also, the GI50 was 17.5 µM with CAKI-1 renal, 16.9 µM in the assay with SF-295 CNS, 15.5 µM in the assay with KM12 colon and 15.3 µM with OVCAR-3 ovarian. The total growth inhibition concentration (TGI) was found to be 45.5 µM with OVCAR-8 ovarian; 45.3 µM with M14 melanoma; 32.6 µM in the assay with SF-268 CNS; 56.4 µM in the assay on HS 578T breast; 24.2 µM in the assay with PC-3 prostate; 37.2 µM in the assay with NCI-H460 lung. Further, the total growth inhibition concentration (TGI) is 31.6 µM in the assay with CAKI-1 renal, 32.5 µM with SF-295 CNS, 32.8 µM with KM12 colon and 29.2 µM in the assay with OVCAR-3 ovarian.
`COc1cnc2c(c1)C(=O)c1c-2n(CCCNC2=NCCS2)c(=O)c2cc([N+](=O)[O-])ccc12`: the GI50 was under 0.01 µM in the assay on M14 melanoma; under 0.01 µM with SF-268 CNS; 1.82 µM with HS 578T breast; under 0.01 µM with NCI-H460 lung; under 0.01 µM in the assay on CAKI-1 renal; 0.0132 µM in the assay on SF-295 CNS. For the same molecule, the results for the GI50 in the assay with KM12 colon and with OVCAR-3 ovarian were 1.11 µM and 0.137 µM, respectively. Moreover, the TGI came out at 1.16 µM with M14 melanoma; 1.88 µM with SF-268 CNS; 4.54 µM with HS 578T breast; 1.24 µM in the assay on NCI-H460 lung; 1.47 µM in the assay on CAKI-1 renal; 0.265 µM in the assay with SF-295 CNS. Further, the figures for the TGI in the assay on KM12 colon and in the assay with OVCAR-3 ovarian were 3.13 µM and 1.81 µM, respectively.
Turning to `CCOC(=O)N[C@H]1CCc2cc(OC)c(OC)c(OC)c2-c2ccc(SC)c(=O)cc21`, the TGI is over 100 µM in the assay on OVCAR-8 ovarian; 21.7 µM and > 27.1 µM in the assay with M14 melanoma; 47.2 µM and > 100 µM in the assay with SF-268 CNS; over 100 µM in the assay on HS 578T breast; over 100 µM in the assay on PC-3 prostate; over 100 µM with NCI-H460 lung. Besides, the GI50 in the assay on CAKI-1 renal was under 0.0182 µM.
For `NC(N)=N/N=C/c1c(Cl)cccc1Cl`, the GI50 with OVCAR-8 ovarian is 30 µM; in the assay with SF-268 CNS, 23.9 µM; in the assay with HS 578T breast, 18 µM; with PC-3 prostate, 31 µM; in the assay on NCI-H460 lung it was 15.6 µM; with CAKI-1 renal it was 23 µM. Moreover, the GI50 in the assay on SF-295 CNS was 12.4 µM; with KM12 colon, 19.9 µM; in the assay with OVCAR-3 ovarian, 28.1 µM. Besides, the TGI in the assay on OVCAR-8 ovarian is over 100 µM; in the assay on SF-268 CNS, 89.4 µM; in the assay with HS 578T breast it was 78 µM; with PC-3 prostate it was over 100 µM; with NCI-H460 lung it was 32.5 µM; in the assay with CAKI-1 renal, 95.3 µM. For the same molecule, the results for the TGI in the assay on SF-295 CNS, in the assay on KM12 colon and in the assay with OVCAR-3 ovarian were 30.2 µM, 59.1 µM and over 100 µM, respectively.
For the molecule `NC1CCN(Cc2ccccc2)CC1`, the GI50 in the assay on OVCAR-8 ovarian, in the assay on M14 melanoma, with SF-268 CNS, in the assay with PC-3 prostate, with NCI-H460 lung and in the assay on CAKI-1 renal was over 100 µM throughout. Further, the GI50 in the assay on SF-295 CNS, in the assay with KM12 colon and in the assay on OVCAR-3 ovarian was over 100 µM throughout. Further, the TGI with OVCAR-8 ovarian, in the assay on M14 melanoma, with SF-268 CNS, with PC-3 prostate, in the assay on NCI-H460 lung and in the assay on CAKI-1 renal was over 100 µM throughout. Moreover, the TGI with SF-295 CNS, in the assay with KM12 colon and with OVCAR-3 ovarian was over 100 µM throughout.
As to `CC1(C)OC2C(CO[Si](C)(C)C(C)(C)C)OC(n3c(I)c(C#C[Si](C)(C)C)c(=O)[nH]c3=O)C2O1` (configuration not stated), the GI50 in the assay with OVCAR-8 ovarian is 12.5 µM; with M14 melanoma, 13.4 µM; with SF-268 CNS, 11.4 µM; with HS 578T breast, 16.8 µM; in the assay on PC-3 prostate it was 2.04 µM; with NCI-H460 lung, 16.8 µM. Moreover, the GI50 in the assay on SF-295 CNS is over 100 µM; with KM12 colon, 23.2 µM; with OVCAR-3 ovarian it was 1.81 µM. Also, the TGI in the assay with OVCAR-8 ovarian stood at 45.8 µM; in the assay with M14 melanoma it was 28.1 µM; in the assay on SF-268 CNS it was 28.2 µM; in the assay with HS 578T breast it was 51.1 µM; in the assay on PC-3 prostate, 4.13 µM; in the assay with NCI-H460 lung it was 34.2 µM. The results for the TGI with SF-295 CNS, in the assay with KM12 colon and in the assay with OVCAR-3 ovarian were over 100 µM, 92.7 µM and 3.54 µM, respectively.
